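Tested at 5 concentrations; 48 h exposure; 96-well plates; endpoints linearly interpolated, else capped at highest concentration. GI50 marks 50% less growth. TGI: concentration producing complete growth inhibition.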
Experiments:
Test in all cases: growth of human tumour cells (NCI), 48 h
A498 renal = system: A498 renal
HCT-15 colon = system: HCT-15 colon
IGROV1 ovarian = system: IGROV1 ovarian
KM12 colon = system: KM12 colon
MOLT-4 leukemia = system: MOLT-4 leukemia
NCI-H522 lung = system: NCI-H522 lung
OVCAR-4 ovarian = system: OVCAR-4 ovarian
SK-MEL-5 melanoma = system: SK-MEL-5 melanoma
SNB-19 CNS = system: SNB-19 CNS
TK-10 renal = system: TK-10 renal

Structure (SMILES)	TGI (A498 renal)	TGI (HCT-15 colon)	TGI (IGROV1 ovarian)	TGI (KM12 colon)	TGI (MOLT-4 leukemia)	TGI (NCI-H522 lung)	TGI (OVCAR-4 ovarian)	TGI (SK-MEL-5 melanoma)	TGI (SNB-19 CNS)	TGI (TK-10 renal)	GI50 (A498 renal)	GI50 (HCT-15 colon)	GI50 (IGROV1 ovarian)	GI50 (KM12 colon)	GI50 (MOLT-4 leukemia)	GI50 (NCI-H522 lung)	GI50 (OVCAR-4 ovarian)	GI50 (SK-MEL-5 melanoma)	GI50 (SNB-19 CNS)	GI50 (TK-10 renal)
O=C(/C=C/c1ccccc1)NC1C=Nc2ccc(Cl)cc2NC1=O (stereo not drawn)	> 100 µM	61 µM	> 100 µM	56.8 µM	27.3 µM	34.6 µM	> 100 µM	51.6 µM	> 100 µM	> 100 µM										
O=C(N/C(=C\c1ccc(/C=C(\NC(=O)c2ccccc2)c2nc3cc([N+](=O)[O-])ccc3[nH]2)cc1)c1nc2cc([N+](=O)[O-])ccc2[nH]1)c1ccccc1	> 100 µM	> 100 µM	> 100 µM		> 100 µM	50 µM	> 100 µM	> 100 µM	> 100 µM	78.5 µM										
COc1cc(/C=N/NC(=O)c2ccc(C(F)(F)F)nc2Nc2ccc(Cl)cc2C)ccc1O	14.5 µM	10.4 µM	7.02 µM	7.16 µM	2.75 µM	14.2 µM	17 µM	3.28 µM	14.5 µM	17.3 µM	3.1 µM	0.987 µM	0.838 µM	2.23 µM	0.554 µM	3.31 µM	1.54 µM	1.41 µM	3.73 µM	5.13 µM
Cc1ccc(NC2=C(Cl)C(=O)N(Cc3ccccc3)C2=O)cc1O	33.1 µM	> 100 µM	> 100 µM	> 100 µM	> 100 µM	> 100 µM	> 100 µM	37.5 µM	> 100 µM	> 100 µM	7.18 µM	33.5 µM	35.4 µM	41.4 µM	24.3 µM	41.2 µM	79.3 µM	15.5 µM	41.2 µM	31.3 µM
CC(C)=CC(=O)C1c2cccc(O)c2C(=O)c2c(O)cc(C)cc21 (stereo not drawn)	37.3 µM	10.6 µM	4.76 µM	3.17 µM	20.7 µM	3.85 µM	4.52 µM	4.06 µM	16.3 µM	7.83 µM										
CCCCCN(CCCCC)CC(O)c1cc(C)c2ccc3cc(C(C)C)ccc3c2c1 (stereo not drawn)	2.94 µM	3.43 µM	3.47 µM	3.36 µM	4.72 µM	3.85 µM	3.75 µM	3.62 µM	3.73 µM	3.51 µM	1.56 µM	1.81 µM	1.79 µM	1.8 µM	2.21 µM	1.81 µM	1.92 µM	1.83 µM	1.88 µM	1.89 µM
Cc1nc2ccccc2c(=O)n1-c1ccccc1I	> 100 µM	> 100 µM	> 100 µM		> 100 µM	> 100 µM	> 100 µM	> 100 µM	> 100 µM	> 100 µM										
Clc1cc2nsnc2c(Cl)n1	> 100 µM	45.6 µM	86.3 µM	> 100 µM	43.6 µM	36.7 µM	31.3 µM	32.7 µM	36.7 µM	44 µM										
O=C1C2C(C(=O)N1OS(=O)(=O)c1ccccc1)N(Cc1ccccc1)C(=O)N2Cc1ccccc1 (stereo not drawn)	> 100 µM	> 100 µM	> 100 µM	> 100 µM	> 100 µM	> 100 µM	> 100 µM	> 100 µM	> 100 µM	> 100 µM										
COc1ccc2c3c1C(=O)CCCC3CO2 (stereo not drawn)	> 100 µM	> 100 µM	> 100 µM	> 100 µM	> 100 µM	> 100 µM	> 100 µM	> 100 µM	> 100 µM	> 100 µM										
CC12CCC(O)CC1CCC1C2CCC2(C)C(C3=CC(=O)OC3)CCC12O (stereo not drawn)	25.6 µM	5.75 µM	19.4 µM	> 43.3 µM	> 100 µM	4.9 µM	5.39 µM	1.98 µM	12.8 µM	> 35.4 µM		2.39 µM								
OCc1ccc(N2CCC2c2ccc(F)cc2)cc1Cl (stereo not drawn)	0.244 µM	> 100 µM	0.742 µM	> 66.4 µM	64.6 µM	55.9 µM	> 59.3 µM	22.9 µM	> 100 µM	1.61 µM	0.0584 µM	21.5 µM		24.3 µM	25 µM	20.9 µM	0.925 µM	8.92 µM	36.6 µM	0.225 µM
CC1(c2ccc(F)cc2)C(C#N)C(=O)NC(=O)C1C#N (stereo not drawn)	> 100 µM	> 100 µM	> 100 µM	> 100 µM	> 100 µM	> 100 µM	> 100 µM	> 100 µM	> 100 µM	> 100 µM										

Reference: PubChem BioAssay (NCI)
